Patent publication US20250041292A1, “METHODS FOR TREATING PRIMARY IMMUNODEFICIENCY” (X4 Pharmaceuticals, Inc., priority 2021, published 2025)
Entries after “also recorded” stand apart in the source; their conditions may differ.

Assays:
[1] = tested on: WHIM mice; conditions: gavaged daily 100 mg/kg for 1 or 3 weeks; cited from earlier work
[2] = mouse, in vivo; cited from earlier work
[3] = tested on: circulating white blood cells; conditions: 400-mg single-dose subject; cited from earlier work
[4] = tested on: peripheral WBC counts and subsets; experiment: Phase 1b trial of mavorixafor in combination with nivolumab in metastatic ccRCC: peripheral WBC counts; assay type: in vivo, human
[5] = tested on: CVID B cells; experiment: Chemotaxis assay: PBMCs from a patient with CVID due to NFKB1 mutation; assay type: cell-based, human
Method: PBMCs from patients or healthy donors were resuspended in chemotaxis buffer (RPMI 1640 media containing 20 mM HEPES, L-glutamine, and 0.5% BSA) at 2.0×10^6 cells/mL. […] Chemotaxis was assayed immediately after treatment with drug by placing 1.0×10^5 cells in 100 μL in the upper chamber of a Transwell 24-well plate separated by a 6.5 mm insert with 3 μm pores (Corning Life Sciences, Corning, NY, USA) from the lower chamber containing 600 μL of buffer with the indicated concentration of CXCL12. After incubation for 2.5 hours at 37° C. in a 5% CO2 incubator, the cells that migrated into the lower chamber were collected by centrifugation and resuspended in the assay buffer. Cells were blocked using Human TruStain FcX (BioLegend, Inc) for 10 minutes at RT, and subsequently B lymphocyte subtyping was performed (Alexa Fluor® 488 Mouse anti-human CD19 IgG1, κ, HIB19, BioLegend, Cat #302219). A fixed number of flow cytometry counting beads (Precision Count Beads; BioLegend) were added to each sample.
Both migrated cells and counting beads were counted by flow cytometry (CytoFLEX). Data were analyzed using FCS Express software, and the total number of migrated cells was calculated, according to the counted and total number of beads present in the sample. Results are presented as percentage of migrated B cells out of the total number of B cells placed in the chemotaxis chamber.

[6] = tested on: peripheral WBC counts and subsets; experiment: Long-term extension of phase 2 trial of mavorixafor in WHIM syndrome: WBC counts and infection rate; conditions: WHIM syndrome phase 2 extension
[7] = tested on: peripheral WBC counts and subsets; experiment: Phase 1/2 trial of mavorixafor in combination with axitinib in advanced ccRCC: peripheral WBC counts; assay type: in vivo, human; conditions: mavorixafor 400 mg QD + axitinib
[8] = tested on: peripheral WBC counts and subsets; experiment: Phase 1b trial of mavorixafor in combination with ibrutinib in Waldenstrom's macroglobulinemia: peripheral WBC counts; assay type: in vivo, human; conditions: WM, interim analysis
[9] = mavorixafor 300 or 400 mg QD, after 6 months' (n=5) treatment
[10] = after 6 months' treatment (n=20)
[11] = after 6 months' (n=5) treatment
[12] = compared to screening values, after 4 weeks (n=8)

Q: Which “IL-7 production and B cell development” value [1] does the source give for `Cc1cccnc1[C@@H]1CCC[C@H](c2nc3cccc(N4CCN(C)CC4)n3c2CO)N1C` here?
A: restored IL-7 production and B cell development

Q: What about the oral bioavailability [2] of the same compound?
A: orally bioavailable

Q: With mavorixafor as the compound, how does the “increase in the number of circulating white blood cells (Leukocytosis)” value [3] read?
A: 2.9 fold above baseline

Q: What about the ALC ([4]; after 4 weeks (n=9)) of the same compound?
A: 141 % of baseline

Q: What about the AMC ([4]; after 4 weeks (n=9)) of the same compound?
A: 179 % of baseline

Q: And the ANC ([4]; after 4 weeks (n=9))?
A: 143 % of baseline

Q: What about the “total WBC count” value ([4]; after 4 weeks (n=9)) of the same compound?
A: 146 % of baseline

Q: And the ALC ([4]; after 6 months (n=2))?
A: 152 % of baseline

Q: What about the AMC ([4]; after 6 months (n=2)) of the same compound?
A: 191 % of baseline

Q: What about the ANC ([4]; after 6 months (n=2)) of the same compound?
A: 136 % of baseline

Q: And the “total WBC count” value ([4]; after 6 months (n=2))?
A: 147 % of baseline

Q: And the “mavorixafor concentration effectively neutralizing the chemotaxis” value ([5]; CVID B cells cultured with 10 nm CXCL12, FIG. 1C)?
A: 0.1 µM

Q: And the “effect on enhanced chemotaxis toward CXCL12” value ([5]; CVID patient B cells, FIG. 1C)?
A: dose-dependent normalization effect on chemotaxis; also recorded: normalizes enhanced chemotaxis

Q: And the annualized infection rate ([6]; after 40 months, baseline 5.6 (SD±3.13) events)?
A: 2.2 (SD±0.93) events

Q: What about the ALC [6, 9] of the same compound?
A: 239 % of baseline

Q: And the AMC [6, 9]?
A: 486 % of baseline

Q: And the ANC [6, 9]?
A: 652 % of baseline

Q: What about the “total WBC count” value [6, 9] of the same compound?
A: 339 % of baseline

Q: What about the ALC ([7]; after 4 weeks (n=49)) of the same compound?
A: 143 % of baseline

Q: And the AMC ([7]; after 4 weeks (n=49))?
A: 182 % of baseline

Q: What about the ANC ([7]; after 4 weeks (n=49)) of the same compound?
A: 158 % of baseline

Q: What about the “total WBC count” value ([7]; after 4 weeks (n=49)) of the same compound?
A: 153 % of baseline

Q: And the ALC [7, 10]?
A: 139 % of baseline

Q: What about the AMC [7, 10] of the same compound?
A: 166 % of baseline

Q: And the ANC [7, 10]?
A: 171 % of baseline

Q: And the “total WBC count” value [7, 10]?
A: 159 % of baseline

Q: What about the ALC [8, 11] of the same compound?
A: 106 % of baseline

Q: What about the AMC [8, 11] of the same compound?
A: 172 % of baseline

Q: And the ANC [8, 11]?
A: 192 % of baseline

Q: What about the “total WBC count” value [8, 11] of the same compound?
A: 163 % of baseline

Q: What about the ALC [8, 12] of the same compound?
A: 219 % of baseline

Q: What about the AMC [8, 12] of the same compound?
A: 186 % of baseline

Q: What about the ANC [8, 12] of the same compound?
A: 170 % of baseline

Q: What about the “total WBC count” value [8, 12] of the same compound?
A: 192 % of baseline
